Reference: publication PMC10066365, “Nemacol is a small molecule inhibitor of C. elegans vesicular acetylcholine transporter with anthelmintic potential” (Nature Communications, 2023)
Several values for one entry are separate records, joined by “and”; a condition that tells them apart may be missing. Equal values may be shown once.

Assays:
[1] = test system: Dirofilaria immitis microfilariae; experiment: Dirofilaria immitis microfilariae immobility assay (DiroImager, 72 h); details: for % effect (motility), DIROIM MF: Dirofilaria immitis microfilariae; for EC50: Dirofilaria immitis, 72 h, read-out: Dirofilaria immitis filariae EC50
In short: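 Motility read after 72 h drug exposure with an image-based high-throughput plate imager, 1% DMSO medium serving as negative control. Missouri-isolate microfilariae, roughly 250 per well, freshly purified and cultured in supplemented RPMI 1640.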

C. elegans = C. elegans motor phenotype scoring on solid media (Punc/jerky-unc, coiled, paralyzed), wild-type young adults; type: in vivo, Caenorhabditis elegans; details: for atypical locomotion (number of animals) / coiled (number of animals) / no phene (number of animals) / paralyzed (number of animals) / any phene: mean % fraction of young adults exhibiting any phenotype (coiled, jerky-Unc or paralyzed): one hour; for atypical locomotion (number of animals) / coiled (number of animals) / no phene (number of animals) / paralyzed (number of animals): young adults, 20 animals per trial, single technical replicate; for any phene: mean % fraction of young adults exhibiting any phenotype (coiled, jerky-Unc or paralyzed): mean of three biological replicates; for EC50: Caenorhabditis elegans, any motor phenotype after 1 h on solid media, ± 95% CI, read-out: C. elegans - motor disruption EC50
[2] = test system: Dirofilaria immitis L3/L4; experiment: Dirofilaria immitis L3/L4 motility assay (DiroImager, 72 h); details: Dirofilaria immitis L4
Pristionchus pacificus = Pristionchus pacificus motor disruption dose-response on solid media, 1 h; details: for mean % any phene (coiled, jerky-Unc or paralyzed): Pristionchus pacificus young adults; for mean % any phene (coiled, jerky-Unc or paralyzed) / mean % any phene: mean of three biological replicates; for EC50: Pristionchus pacificus, 1 h, read-out: P. pacificus motor disruption EC50; for mean % any phene: any phenotype (coiled, jerky-Unc or paralyzed) at one hour; for rep 1 atypical locomotion / rep 1 coiled / rep 1 no phene / rep 1 paralyzed / rep 2 atypical locomotion / rep 2 coiled / rep 2 no phene / rep 2 paralyzed / rep 3 atypical locomotion / rep 3 coiled / rep 3 no phene / rep 3 paralyzed: count of 20 animals per trial, one hour

Structure (SMILES): O=[N+]([O-])c1ccc(N2CCN(C3CCCC3)CC2)cc1 [Nemacol-61]
- % effect (motility), DIROIM MF ([1]; 0.016 µM): 0%
- % effect (motility), DIROIM MF ([1]; 0.08 µM): 0%
- % effect (motility), DIROIM MF ([1]; 0.4 µM): 0%
- % effect (motility), DIROIM MF ([1]; 2 µM): 0%
- % effect (motility), DIROIM MF ([1]; 10 µM): 40%
- EC50 [1]: 11 µM
- atypical locomotion (number of animals) (C. elegans; 3.75uM): 0 and 1
- coiled (number of animals) (C. elegans; 3.75uM): 0 and 17 and 13
- no phene (number of animals) (C. elegans; 3.75uM): 20 and 19 and 3 and 7
- paralyzed (number of animals) (C. elegans; 3.75uM): 0
- any phene: mean % fraction of young adults exhibiting any phenotype (coiled, jerky-Unc or paralyzed) (C. elegans; 3.75uM): 25.8333%
- atypical locomotion (number of animals) (C. elegans; 15uM): 10 and 13 and 12 and 2 and 4
- coiled (number of animals) (C. elegans; 15uM): 0 and 1 and 2 and 18 and 16
- no phene (number of animals) (C. elegans; 15uM): 8 and 7 and 5 and 4 and 0
- paralyzed (number of animals) (C. elegans; 15uM): 2 and 0 and 4
- any phene: mean % fraction of young adults exhibiting any phenotype (coiled, jerky-Unc or paralyzed) (C. elegans; 15uM): 80%
- atypical locomotion (number of animals) (C. elegans; 60uM): 0 and 17 and 18
- coiled (number of animals) (C. elegans; 60uM): 19 and 12 and 13 and 3 and 2
- no phene (number of animals) (C. elegans; 60uM): 0
- paralyzed (number of animals) (C. elegans; 60uM): 1 and 8 and 7 and 0
- any phene: mean % fraction of young adults exhibiting any phenotype (coiled, jerky-Unc or paralyzed) (C. elegans; 60uM): 100%
- EC50 (C. elegans): 6.8 ± 4.1 µM
- % effect (motility), DIROIM L4 ([2]; 2 µM): 0%
- % effect (motility), DIROIM L4 ([2]; 10 µM): 0%
- % effect (motility), DIROIM L4 ([2]; 50 µM): 20%
- mean % any phene (coiled, jerky-Unc or paralyzed) (Pristionchus pacificus; conc 3.75, observed at one hour): 12.5%
- mean % any phene (coiled, jerky-Unc or paralyzed) (Pristionchus pacificus; conc 15, observed at one hour): 9.167%
- mean % any phene (coiled, jerky-Unc or paralyzed) (Pristionchus pacificus; conc 60, observed at one hour): 88.3333%
- EC50 (Pristionchus pacificus): 31.2 ± 9.6 µM

Structure (SMILES): O=[N+]([O-])c1ccc(N2CCN(C3CCCCC3)CC2)cc1 [Nemacol-64]
- % effect (motility), DIROIM MF ([1]; 0.016 µM): 0%
- % effect (motility), DIROIM MF ([1]; 0.08 µM): 0%
- % effect (motility), DIROIM MF ([1]; 0.4 µM): 0%
- % effect (motility), DIROIM MF ([1]; 2 µM): 0%
- % effect (motility), DIROIM MF ([1]; 10 µM): 40%
- EC50 [1]: 11 µM
- atypical locomotion (number of animals) (C. elegans; 3.75uM): 18 and 13 and 2 and 10 and 6
- coiled (number of animals) (C. elegans; 3.75uM): 2 and 5 and 16 and 1 and 3
- no phene (number of animals) (C. elegans; 3.75uM): 0 and 2 and 1 and 8 and 11
- paralyzed (number of animals) (C. elegans; 3.75uM): 0 and 2 and 1
- any phene: mean % fraction of young adults exhibiting any phenotype (coiled, jerky-Unc or paralyzed) (C. elegans; 3.75uM): 81.6667%
- atypical locomotion (number of animals) (C. elegans; 15uM): 11 and 10 and 4 and 3 and 16 and 14
- coiled (number of animals) (C. elegans; 15uM): 9 and 8 and 15 and 14 and 3 and 2
- no phene (number of animals) (C. elegans; 15uM): 0 and 2
- paralyzed (number of animals) (C. elegans; 15uM): 0 and 2 and 1 and 3
- any phene: mean % fraction of young adults exhibiting any phenotype (coiled, jerky-Unc or paralyzed) (C. elegans; 15uM): 96.746%
- atypical locomotion (number of animals) (C. elegans; 60uM): 3 and 2 and 8 and 1 and 0
- coiled (number of animals) (C. elegans; 60uM): 14 and 16 and 3 and 0 and 7 and 5
- no phene (number of animals) (C. elegans; 60uM): 0
- paralyzed (number of animals) (C. elegans; 60uM): 3 and 2 and 14 and 12 and 15
- any phene: mean % fraction of young adults exhibiting any phenotype (coiled, jerky-Unc or paralyzed) (C. elegans; 60uM): 100%
- EC50 (C. elegans): 1.6 ± 2.8 µM
- % effect (motility), DIROIM L4 ([2]; 2 µM): 0%
- % effect (motility), DIROIM L4 ([2]; 10 µM): 0%
- % effect (motility), DIROIM L4 ([2]; 50 µM): 100%
- EC50 (Pristionchus pacificus): 14.3 µM
- mean % any phene (Pristionchus pacificus; conc 3.75): 0%
- rep 1 atypical locomotion (Pristionchus pacificus; conc 3.75): 0
- rep 1 coiled (Pristionchus pacificus; conc 3.75): 0
- rep 1 no phene (Pristionchus pacificus; conc 3.75): 20
- rep 1 paralyzed (Pristionchus pacificus; conc 3.75): 0
- rep 2 atypical locomotion (Pristionchus pacificus; conc 3.75): 0
- rep 2 coiled (Pristionchus pacificus; conc 3.75): 0
- rep 2 no phene (Pristionchus pacificus; conc 3.75): 20
- rep 2 paralyzed (Pristionchus pacificus; conc 3.75): 0
- rep 3 atypical locomotion (Pristionchus pacificus; conc 3.75): 0
- rep 3 coiled (Pristionchus pacificus; conc 3.75): 0
- rep 3 no phene (Pristionchus pacificus; conc 3.75): 20
- rep 3 paralyzed (Pristionchus pacificus; conc 3.75): 0
- mean % any phene (Pristionchus pacificus; conc 15): 70.8333%
- rep 1 atypical locomotion (Pristionchus pacificus; conc 15): 10 and 14
- rep 1 no phene (Pristionchus pacificus; conc 15): 7 and 5
- rep 1 paralyzed (Pristionchus pacificus; conc 15): 0
- rep 2 atypical locomotion (Pristionchus pacificus; conc 15): 14 and 12
- rep 2 no phene (Pristionchus pacificus; conc 15): 5 and 8
- rep 2 paralyzed (Pristionchus pacificus; conc 15): 0
- rep 3 atypical locomotion (Pristionchus pacificus; conc 15): 15 and 12
- rep 3 coiled (Pristionchus pacificus; conc 15): 2 and 1
- rep 3 paralyzed (Pristionchus pacificus; conc 15): 0
- mean % any phene (Pristionchus pacificus; conc 60): 100%
- rep 1 atypical locomotion (Pristionchus pacificus; conc 60): 2 and 1
- rep 1 coiled (Pristionchus pacificus; conc 60): 8 and 12
- rep 1 no phene (Pristionchus pacificus; conc 60): 0
- rep 1 paralyzed (Pristionchus pacificus; conc 60): 10 and 7
- rep 2 atypical locomotion (Pristionchus pacificus; conc 60): 0
- rep 2 coiled (Pristionchus pacificus; conc 60): 9 and 11
- rep 2 no phene (Pristionchus pacificus; conc 60): 0
- rep 2 paralyzed (Pristionchus pacificus; conc 60): 11 and 9
- rep 3 coiled (Pristionchus pacificus; conc 60): 10 and 11
- rep 3 no phene (Pristionchus pacificus; conc 60): 0
- rep 3 paralyzed (Pristionchus pacificus; conc 60): 7 and 8
